Assay results as given in US12016858B2, “Methods for the treatment of abnormal involuntary movement disorders” (AUSPEX PHARMACEUTICALS, INC., priority 2015, dated 2024).

Tested on: patients with moderate to severe tardive dyskinesia
Assay: ARM-TD randomized, double-blind, placebo-controlled study
Format: in vivo, human
Source text: An additional clinical study, Aim to Reduce Movements in […] Dyskinesia (ARM-TD) was designed and conducted to evaluate the efficacy of SD-809 (deutetrabenazine) in the treatment of moderate to severe tardive dyskinesia. […] Subjects were screened for inclusion in the study as follows. Inclusion criteria included: between 18 and 75 years of age, inclusive; history of using a dopamine receptor antagonist for at least 3 months (or 1 month in subjects 60 years of age and older); clinical diagnosis of TD, and has had symptoms for at least 3 months prior to Screening; […] Dosing. […] Drug was then administered at that dose for another six weeks for a total treatment of 12 weeks, followed by a 1-week washout period. […] Dose suspensions of up to one week were permitted if the subject experienced a clinically significant adverse event. Study Objectives and Endpoints. The objectives of the study was to evaluate the efficacy of SD-809 in reducing the severity of abnormal involuntary movements associated with tardive dyskinesia and the safety and tolerability of titration and maintenance therapy with deutetrabenazine in subjects with drug-induced tardive dyskinesia. […] Baseline AIMS score is defined for each subject as the Day 0 assessment. The AIMS is composed of 12 clinician-administered and scored items. Items 1-10 are rated on a 5-point, anchored scale and consist of the following: • Items 1-4 assess orofacial movements; • Items 5-7 deal with extremity and truncal dyskinesia; • Items 8-10 deal with global severity as judged by the examiner, and the patient's awareness of the movements and the distress associated with them; and • Items 11-12 are yes/no questions concerning problems associated with teeth and/or dentures, as such problems can be mistaken for dyskinesia. […] As with previous studies, […] treatment success may be defined as Much or Very Much Improved on a 7-point Likert Scale, ranging from very much worse to very much improved at Week 12. The CDQ-24 is a disease-specific quality of life questionnaire developed for use in patients with craniocervical dystonia, including both cervical dystonia (CD) and blepharospasm (BPS). The CDQ-24 was selected for use in the present study because it includes domains which are relevant not only to CD and BPS, but to TD, such as stigma, emotional well-being, pain, activities of daily living, and social/family life. For the present study, the CDQ-24 has been modified such that the questions focus more directly on the impact of TD (as opposed to CD/BPS) on quality of life. […] Measurements and Statistics. Digital video recordings of AIMS assessments made at all clinic visits (at Screening, Baseline, Weeks 2, 4, 6, 9, and 12) were rated by pairs of central raters who were experts in movement disorders and were blinded to treatment arm, sequence of video, and the investigator AIMS score. Analysis was carried out using a linear mixed model for repeated measurements (MMRM) with the change in the AIMS score as the dependent variable. The model included fixed effects for treatment group, time point (five levels: Weeks 2, 4, 6, 9, and 12), the treatment group by time point interaction, and the randomization stratification variable. The unstructured covariance model was used and the primary analysis compared the deutetrabenazine and placebo groups at Week 12 using a two-sided test at the 5% level of significance.

[1] = n = 58, count (percent), listed as DTBZ

[2H]C([2H])([2H])Oc1cc2c(cc1OC([2H])([2H])[2H])C1CC(=O)C(CC(C)C)CN1CC2 (stereo not drawn) [deutetrabenazine, (RR, SS)-1,3,4,6,7,11b-hexahydro-9,10-di(methoxy-d3)-3-(2-methylpropyl)-2H-benzo[a]quinolizin-2-one]
CGIC Treatment Success, Treatment Difference (DTBZ vs Placebo): 7.90%
Change from baseline mCDQ-24, Treatment Difference (DTBZ vs Placebo): −2.7
PGIC Treatment Success, Treatment Difference (DTBZ vs Placebo): 13.00%
AIMS Change (LS Mean), Treatment Difference (DTBZ vs Placebo, p-value 0.0188): −1.4
Change from baseline mCDQ-24 (N = 56): −11.1
CGIC Treatment Success (%) (Week 12, N = 56): 48.20%
PGIC Treatment Success N (%) (Week 12, N = 56): 42.90%
AIMS Change (LS Mean) (baseline to Week 12, N = 56): −3
improvement on the AIMS score (baseline to end of therapy): 3.0 points
Depression/depressed mood reported (in vivo): one patient
suicidal ideation reported (in vivo): none
Any TEAEs (Treatment-Emergent Adverse Events) (n = 58, count (percent)): 41 (70.7%)
TEAE Anxiety (n = 58, count (percent)): 3 (5.2%)
TEAE Chest pain (n = 58, count (percent)): 1 (1.7%)
TEAE Constipation (n = 58, count (percent)): 2 (3.4%)
TEAE Diarrhea (n = 58, count (percent)): 3 (5.2%)
TEAE Dizziness (n = 58, count (percent)): 2 (3.4%)
TEAE Dry mouth (n = 58, count (percent)): 2 (3.4%)
TEAE Fatigue (n = 58, count (percent)): 4 (6.9%)
TEAE Headache (n = 58, count (percent)): 4 (6.9%)
TEAE Nasopharyngitis (n = 58, count (percent)): 2 (3.4%)
TEAE Nausea (n = 58, count (percent)): 2 (3.4%)
TEAE Pneumonia (n = 58, count (percent)): 1 (1.7%)
TEAE Upper respiratory tract infection (n = 58, count (percent)): 2 (3.4%)
TEAE Vomiting (n = 58, count (percent)): 1 (1.7%)
Serious TEAEs [1]: 4 (6.9%)
TEAE Akathisia [1]: 3 (5.2%)
TEAE Insomnia [1]: 4 (6.9%)
TEAE Somnolence/sedation [1]: 9 (15.5%)
TEAEs Resulting in Study Withdrawal [1]: 1 (1.7%)
